Here are results for 16 molecules from EP4772498A1, “COMPOUND ACTING AS ANDROGEN RECEPTOR ANTAGONIST” (China Pharmaceutical University, priority 2023, dated 2025).

One data set has as its system AR. Description: AR antagonistic activity: AR / PSA ARE1 luciferase reporter gene assay in transfected LNCaP cells stimulated with 1 nM DHT. The data set is classed as cell-based. As to conditions: 24 h, normalised to 0.1% DMSO and 30 µM enzalutamide. As for the experimental part: LNCaP cells were plated in a 6-well plate (Corning, 3516) at 8 × 10^5 cells/well.
AR and PSA ARE1 reporter gene plasmids (Bio (Anhui) Co., Ltd.) and transfection reagents Lipo3000 and P3000 (Lipofectamine™ 3000) (a total of 2.5 µg of plasmids, i.e., 1.25 µg of each plasmid, were added to each well) were left to stand and incubated for 10 min, and then 250 µL of the above transfection reagents were added dropwise to each well containing cells and co-incubated with the cells for 24 h.
The cells were washed with PBS, and the medium was replaced with a phenol red-free RPMI-1640 medium containing 5% carbon adsorption serum (or 10% fetal bovine serum and 1% penicillin and streptomycin). The cells were re-plated onto a 96-well plate (Corning, 3603) according to the number of cells plated (2 × 10^4 cells/well).
After cell plating, the test compound (or DMSO or positive control) was added. After at least 30 min of incubation, DHT (dihydrotestosterone) was added to the culture system at a final concentration of 1 nM. The culture system was then incubated in a carbon dioxide incubator.
Test compound: 10 mM stock solution, with a final concentration of 3.3 µM or 6.7 µM. Negative control: 0.1% DMSO. Positive control: 30 µM enzalutamide.
After the test compound (or DMSO or positive control) and DHT were co-incubated for 24 h, the luciferase signal was detected using the Vazyme Bright-Lite substrate. The medium was added at 70 µL/well, and the plate was shaken for 2 min, followed by reading of the luciferase signal.
Assay robustness was confirmed using the DMSO and low concentration control data: Ave_H = Ave(DMSO) [formula] Ave_L = Ave (30μMenzalutamide) [formula] Inhibition rate (%) = (Ave_H−Sample)/(Ave_H−Ave_L) × 100% [formula] Ave_H: the measurement of the negative control (0.1% DMSO); Ave_L: the measurement of the positive control (30 µM enzalutamide); Sample: the measurement of the test compound; The corresponding activity test results for the test compounds were specified in Table 1. Table 1. Corresponding activity test results for compounds disclosed herein

Data set [1] is described as follows: Metabolic stability assay in liver microsomes. The data set is classed as in vitro ADME. As to conditions: human liver microsomes, pH 7.4, human liver microsome 0.5 mg/mL, 1 mM NADPH, compound 1 µM, 37 °C; for microsomal CLint at 1 µM: read-out: In vitro Clint; for half-life at 1 µM: read-out: In vitro T1/2. The procedure: The metabolic stability of compounds disclosed herein in liver microsomes was determined using the following method.
• 1. Liver microsome source: Human liver microsome (Corning, 452117) • 2. Na2HPO4 (Tianjin Guangfu Fine Chemical Research Institute, 20180130) • 3. KH2PO4 (Tianjin Guangfu Fine Chemical Research Institute, 20180920) • 4. MgCl2 (Tianjin Guangfu Fine Chemical Research Institute, 20191216) • 5. NADPH (Solarbio, 1216C022) • 6. Positive control compound verapamil (Sigma, MKBV4993V) • 7. AB Sciex Triple Quad 4000 liquid chromatography-mass spectrometry system
1. Preparation of 100 mM phosphate-buffered saline (PBS): 7.098 g Na2HPO4 was dissolved in 500 mL of purified water by sonication to give solution A. 3.400 g of KH2PO4 was dissolved in 250 mL of purified water by sonication to give solution B. Solution A was placed on a stirrer, and solution B was added slowly until the pH reached 7.4, so as to give a 100 mM PBS buffer. 2. Preparation of reaction system The reaction system was prepared according to the table below.
3. The reaction system was pre-incubated in a 37 °C water bath for 10 min. 40 µL of 10 mM NADPH solution (NADPH was dissolved in 100 mM phosphate-buffered saline) was added to the reaction system, with the final concentration of NADPH being 1 mM. A negative control was prepared by replacing the NADPH solution with 40 µL of phosphate-buffered saline. The negative control was used to exclude the effect of the chemical stability of the compound itself. 4. The reaction was initiated by adding 4 µL of 100 µM compound disclosed herein or positive control compound verapamil to the reaction system at a final concentration of 1 µM. 5. After 0.5 min, 15 min, 30 min, 45 min, and 60 min of mixing well by using a vortex oscillator, 50 µ L of the incubated sample was taken out, and glacial acetonitrile containing an internal standard of 4 folds was added to terminate the reaction. The sample was centrifuged at 3,220 g for 45 min. 90 µL of the supernatant was transferred to a feeding plate after the centrifugation was completed, and 90 µL ultrapure water was added. The mixture was well mixed for LC-MS/MS analysis.
All data were calculated by using Microsoft Excel software. The peak areas were determined by using an extracted ion chromatogram. The in vitro half-life (T1/2) of the test compound was determined by linear fitting of the natural logarithm of the elimination proportion of the test compound over time. In vitro half-life (T1/2) was calculated by the slope k: in vitro T1/2 = 0.693/k [formula]
The in vitro intrinsic clearance (in vitro CLint, unit: µL/min/mg protein) was calculated using the following formula: in vitro CLint = k × volume of incubation solution/enzyme protein content; [formula]
For orientation: Liver microsomes are vesicles of endoplasmic reticulum, rich in cytochrome P450 enzymes.

Another data set relates to C57BL/6 mice. The data set can be described thus: In vivo pharmacodynamic study 1: hair growth scoring in shaved telogen-phase mice, topical treatment. As to conditions: for Score (mean±SD): hair growth score 0-5, topical twice daily, compound 001 2 wt%, compound 008 0.5 wt%.
[2] abbreviates: treatment concentration: 3.3 µM.
[3] abbreviates: at the investigated doses (001 2%, 008 0.5%, BID topical).
[4] abbreviates: treatment concentration: 6.7 µM.

Marks after values point to notes of the source that are not given here.

Description for C57BL/6 mice: Vehicle: propylene glycol/ethanol (30:70, v/v)
Animal information: C57BL/6 mice (male, aged 4-6 weeks, about 18-20 g), purchased from Shanghai Lingchang Biotechnology Co., Ltd. The mice were bred in an SPF-level environment within independently ventilated cages.
Skin preparation: After 1-2 weeks of acclimation, the hairs in a 2 cm × 3 cm area of the back of the mice were shaved to confirm that the hairs of the mice were in the telogen phase (the skin was pink) and the skin was not damaged.
Treatment: On day 3 after shaving, the mice were grouped for treatment. […] The control group received the control solvent. 12 mice were in each group.
The mice were weighed on days 10, 13, 18, 21, 25, and 30, and the hair growth state was scored and photographed.
The scoring criteria are as follows: • 0: no growth, with pink skin in the shaved area; • 1: the skin in the shaved area was gray (an increase of less than 20%); • 2: the skin in the shaved area was black (more than 20% but less than 40%); • 3: the skin in the shaved area was black with a little hair growth (more than 40% but less than 60%); • 4: the skin in the shaved area was black with partial hair growth (more than 60% but less than 80%); • 5: basically complete hair growth (80%-100% growth) in the shaved area.

Turning to `CCOC(=O)[C@@](C)(O)C(=O)Nc1cnc(C#N)c(C(F)(F)F)c1` [Compound 002, Ethyl (2S)-3-[[6-cyano-5-(trifluoromethyl)pyridin-3-yl]amino]-2-hydroxy-2-methyl-3-oxopropanoate], in the data set on AR (setting [2]), the “AR antagonism (inhibition rate, %)” value is 89.16^a %. Also, in data set [1], the microsomal CLint at 1 µM came out at 32.5 µL/min/mg and the half-life at 1 µM is 42.6 min.
The matching figures for `CCOC(=O)[C@](C)(O)C(=O)Nc1cnc(C#N)c(C(F)(F)F)c1` [Compound 003, ethyl (2R)-3-[[6-cyano-5-(trifluoromethyl)pyridin-3-yl]amino]-2-hydroxy-2-methyl-3-oxopropanoate]: 75.26^a %, 60.4 µL/min/mg and 22.9 min.
Regarding `CCCOC(=O)[C@@](C)(O)C(=O)Nc1cnc(C#N)c(C(F)(F)F)c1` [Compound 004, Propyl (2S)-3-[[6-cyano-5-(trifluoromethyl)-pyridin-3-yl]amino]-2-hydroxy-2-methyl-3-oxopropanoate], the “AR antagonism (inhibition rate, %)” value with AR (setting [2]) is 87.30^a %.
The same measure, in the same setting: to `CCCOC(=O)[C@](C)(O)C(=O)Nc1cnc(C#N)c(C(F)(F)F)c1` [Compound 005, propyl (2R)-3-[[6-cyano-5-(trifluoromethyl)-pyridin-3-yl]amino]-2-hydroxy-2-methyl-3-oxopropanoate] belongs 58.52^a %; to `CCCCOC(=O)[C@@](C)(O)C(=O)Nc1cnc(C#N)c(C(F)(F)F)c1` [Compound 006, butyl (2S)-3-[[6-cyano-5-(trifluoromethyl)pyridin-3-yl]amino]-2-hydroxy-2-methyl-3-oxopropanoate], 93.92^a %.
Turning to `CCOC(=O)C(O)(C(=O)Nc1cnc(C#N)c(C(F)(F)F)c1)C(F)(F)F` (stereo not shown) [Compound 008, Ethyl 2-[[6-cyano-5-(trifluoromethyl)-pyridin-3-yl]carbamoyl]-3,3,3-trifluoro-2-hydroxypropanoate], the “AR antagonism (inhibition rate, %)” value in the data set with AR (setting [2]) is 86.95^a %. The microsomal CLint at 1 µM in data set [1] stood at 35.5 µL/min/mg. For the same molecule, in data set [1], the half-life at 1 µM was determined as 39.1 min. The “Score (mean±SD)” value with C57BL/6 mice (Day 0) turned out to be 0; in the data set on C57BL/6 mice (Day 10), 0.4±0.5; with C57BL/6 mice (Day 13), 0.6±0.5; in the data set on C57BL/6 mice (Day 18) it was 1.0±0.6; with C57BL/6 mice (Day 21), 1.1±0.7; with C57BL/6 mice (Day 25), 1.9±1.5. Further, in the data set on C57BL/6 mice (Day 30), the “Score (mean±SD)” value is recorded as 2.8±2.1. Besides, the “impact on the body weight of the mice” value in the data set on C57BL/6 mice (setting [3]) is listed as “no significant impact”. Moreover, the “signs of erythema, dehiscence, desquamation, and the like on the skin” value in the data set with C57BL/6 mice (setting [3]) is “no signs”. Moreover, the “effect on mouse hair growth” value in the data set on C57BL/6 mice (compound 001 at 2%, compound 008 at 0.5%, BID topically at 20 µL/cm^2) is “significant promoting effect”. In the data set with C57BL/6 mice (vs. vehicle control, 001 P < 0.01, 008 P < 0.05), the “day of the treatment from which hair growth was significantly promoted” value is at least 13 days.
In the case of `CCCOC(=O)C(O)(C(=O)Nc1cnc(C#N)c(C(F)(F)F)c1)C(F)(F)F` (stereo not shown) [Compound 010, Propyl 2-[[6-cyano-5-(trifluoromethyl)-pyridin-3-yl]carbamoyl]-3,3,3-trifluoro-2-hydroxypropanoate], the “AR antagonism (inhibition rate, %)” value in the data set with AR (setting [2]) is recorded as 82.14^a %.
Same read-out and setting: to `CCCCOC(=O)C(O)(C(=O)Nc1cnc(C#N)c(C(F)(F)F)c1)C(F)(F)F` (stereo not shown) [Compound 011, Butyl 2-[[6-cyano-5-(trifluoromethyl)-pyridin-3-yl]carbamoyl]-3,3,3-trifluoro-2-hydroxypropanoate] belongs 88.48^a %; to `CC(C)(C)OC(=O)C(C)(O)C(=O)Nc1cnc(C#N)c(C(F)(F)F)c1` (stereo not shown) [Compound 014, tert-Butyl 3-[[6-cyano-5-(trifluoromethyl)-pyridin-3-yl]amino]-2-hydroxy-2-methyl-3-oxopropanoate], 90.3^a %; to `CCOC(=O)C(O)(C(=O)Nc1ccc(C#N)c(SC)c1F)C(F)(F)F` (stereo not shown) [Compound 015, Ethyl 2-[(4-cyano-2-fluoro-3-methylsulfanyl-phenyl)carbamoyl]-3,3,3-trifluoro-2-hydroxy-propanoate], 65.06^a %.
As to `CCOC(=O)C(C)(O)C(=O)Nc1cnc(C#N)c(SC)c1` (stereo not shown) [Compound 016, Ethyl 3-[(6-cyano-5-methylthio-pyridin-3-yl)amino]-2-hydroxy-2-methyl-3-oxopropanoate], in data set [1], the microsomal CLint at 1 µM turned out to be 102 µL/min/mg and the half-life at 1 µM is 13.6 min.
As for `CCCCOC(=O)C(C)(O)C(=O)Nc1ccc(C#N)c(C(F)(F)F)c1` (stereo not shown) [Compound 022, Butyl 3-[4-cyano-3-(trifluoromethyl)anilino]-2-hydroxy-2-methyl-3-oxo-propanoate], the “AR antagonism (inhibition rate, %)” value with AR (setting [2]) is 81.05^a %.
Same read-out and setting: to `CCCCOC(=O)C(C)(O)C(=O)Nc1ccc(Cl)c(C(F)(F)F)c1` (stereo not shown) [Compound 023, Butyl 3-[4-chloro-3-(trifluoromethyl)anilino]-2-hydroxy-2-methyl-3-oxo-propanoate] belongs 52.26^a %; to `CCOC(=O)c1cccc(NC(=O)C(C)(O)C(=O)Nc2cnc(C#N)c(C(F)(F)F)c2)n1` (stereo not shown) [Compound 032, Ethyl 6-(3-((6-cyano-5-(trifluoromethyl)pyridin-3-yl)amino)-2-hydroxy-2-methyl-3-oxopropanamido)picolinate], 47.7^a %.
Take `COc1cc(NC(=O)C(C)(O)C(=O)OC(C)(C)C)cnc1C#N` (stereo not shown) [Compound 048, tert-Butyl 3-[(6-cyano-5-methoxypyridin-3-yl)amino]-2-hydroxy-2-methyl-3-oxo-propanoate]: the “AR antagonism (inhibition rate, %)” value in the data set with AR (setting [4]) is listed as 62.18^b %.
On the same count and under the same terms, to `CSc1cc(NC(=O)C(C)(O)C(=O)OC(C)(C)C)cnc1C#N` (stereo not shown) [Compound 049, tert-Butyl 3-[(6-cyano-5-methylthiopyridin-3-yl)amino]-2-hydroxy-2-methyl-3-oxo-propanoate] belongs 90.02^b %.
